{
  "source": "patent US4316891A",
  "about": "“Extended N-terminal somatostatin” (The Salk Institute for Biological Studies, priority 1980, dated 1982)",
  "key": {"[1]": {"details": "juvenile-type diabetics, complete absence of circulating insulin; cited from earlier work"}, "[2]": {"test_system": "secretion of growth hormone", "assay": "in vivo inhibition of growth hormone secretion stimulated by morphine in rats", "details": "in words", "experimental": "(§1) The statistical analysis of the results is carried out generally in accordance with the EXBIOL program reported in the article by Sakiz, Excerpta Medica, Int. Cong. Ser. No. 83 (1964), pp. 225-229."}, "[3]": {"test_system": "cells of rat pituitary glands", "assay": "in vitro inhibition of basal growth hormone secretion in rat pituitary cell cultures, side-by-side with somatostatin", "format": "cell-based", "details": "substantially pure peptide, in words", "experimental": "To determine the effectiveness of the peptides to inhibit the release of growth hormone, in vitro assays are carried out using both somatostatin-28and somatostatin-25 in side-by-side comparison with equimolar concentrations of somotostatin having a known effectiveness to inhibit the release of growth hormone by pituitary cells. Cultures are used which include cells of rat pituitary glands removed some four to five days previously. Both cultures of a defined standard medium and cultures which are considered optimal for the secretion of growth hormone, as a result of having additions of either 2% or 10% of serum from a foetal calf, are used for the comparative testing between either somatostatin and somatostatin-28 or between somatostatin and somatostatin-25.\nas §1"}},
  "note": "Where a SMILES comes first, the peptide text is derived from it. Bridges are numbered along the chain shown (N, C = ends).",
  "data": [
    {"molecule": "somatostatin: tetradecapeptide somatostatin characterized by Guillemin et al., U.S. Pat. No. 3,904,594 (H-AGCKNFFWKTFTSC-OH; disulfide 3-14; ends not checked; UniProt P61278 103-116, looked up)", "values": [
      {"measurement": "diminution of fasting hyperglycemia", "setting": "[1]", "result": "≤ 50", "unit": "%"}
    ]},
    {"molecule": "CSCC[C@H](NC(=O)[C@H](C)NC(=O)[C@@H]1CCCN1C(=O)[C@H](CC(N)=O)NC(=O)[C@@H](N)CO)C(=O)N[C@@H](C)C(=O)N1CCC[C@H]1C(=O)N[C@@H](CCCNC(=N)N)C(=O)N[C@@H](CCC(=O)O)C(=O)N[C@@H](CCCNC(=N)N)C(=O)N[C@@H](CCCCN)C(=O)N[C@@H](C)C(=O)NCC(=O)N[C@H]1CSSC[C@@H](C(=O)O)NC(=O)[C@H](CO)NC(=O)[C@H]([C@@H](C)O)NC(=O)[C@H](Cc2ccccc2)NC(=O)[C@H]([C@@H](C)O)NC(=O)[C@H](CCCCN)NC(=O)[C@H](Cc2c[nH]c3ccccc23)NC(=O)[C@H](Cc2ccccc2)NC(=O)[C@H](Cc2ccccc2)NC(=O)[C@H](CC(N)=O)NC(=O)[C@H](CCCCN)NC1=O", "note": "[somatostatin-25] (H-SNPAMAPRERKAGCKNFFWKTFTSC-OH; disulfide 14-25)", "values": [
      {"measurement": "activity versus somatostatin to inhibit growth hormone secretion stimulated by morphine", "setting": "[2]", "result": "much more active than somatostatin"},
      {"measurement": "potency versus somatostatin in inhibiting the release of GH in vitro", "setting": "[3]", "result": "more potent than somatostatin"}
    ]},
    {"molecule": "CSCC[C@H](NC(=O)[C@H](C)NC(=O)[C@@H]1CCCN1C(=O)[C@H](CC(N)=O)NC(=O)[C@H](CO)NC(=O)[C@H](CC(N)=O)NC(=O)[C@H](C)NC(=O)[C@@H](N)CO)C(=O)N[C@@H](C)C(=O)N1CCC[C@H]1C(=O)N[C@@H](CCCNC(=N)N)C(=O)N[C@@H](CCC(=O)O)C(=O)N[C@@H](CCCNC(=N)N)C(=O)N[C@@H](CCCCN)C(=O)N[C@@H](C)C(=O)NCC(=O)N[C@H]1CSSC[C@@H](C(=O)O)NC(=O)[C@H](CO)NC(=O)[C@H]([C@@H](C)O)NC(=O)[C@H](Cc2ccccc2)NC(=O)[C@H]([C@@H](C)O)NC(=O)[C@H](CCCCN)NC(=O)[C@H](Cc2c[nH]c3ccccc23)NC(=O)[C@H](Cc2ccccc2)NC(=O)[C@H](Cc2ccccc2)NC(=O)[C@H](CC(N)=O)NC(=O)[C@H](CCCCN)NC1=O", "note": "[somatostatin-28]", "values": [
      {"measurement": "activity versus somatostatin to inhibit growth hormone secretion stimulated by morphine", "setting": "[2]", "result": "much more active than somatostatin"},
      {"measurement": "potency versus somatostatin in inhibiting the release of GH in vitro", "setting": "[3]", "result": "more potent than somatostatin"}
    ]}
  ]
}
